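All cell lines were grown in 96-well plates and treated with compound for 48 hours. TGI: concentration producing complete growth inhibition.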
How the values were obtained:
Test in all cases: growth of human tumour cells (NCI), 48 h
ACHN renal = test system: ACHN renal
EKVX NSCLC = test system: EKVX NSCLC
HCC-2998 colon = test system: HCC-2998 colon
HT29 colon = test system: HT29 colon
IGROV1 ovarian = test system: IGROV1 ovarian
K-562 leukemia = test system: K-562 leukemia
LOX IMVI melanoma = test system: LOX IMVI melanoma
M14 melanoma = test system: M14 melanoma
MDA-MB-435 = test system: MDA-MB-435
NCI-H23 lung = test system: NCI-H23 lung
OVCAR-3 ovarian = test system: OVCAR-3 ovarian
OVCAR-8 ovarian = test system: OVCAR-8 ovarian
PC-3 prostate = test system: PC-3 prostate
RPMI-8226 leukemia = test system: RPMI-8226 leukemia
RXF 393 renal = test system: RXF 393 renal
SK-MEL-5 melanoma = test system: SK-MEL-5 melanoma
SNB-75 CNS = test system: SNB-75 CNS
U251 CNS = test system: U251 CNS
UACC-257 melanoma = test system: UACC-257 melanoma
UACC-62 melanoma = test system: UACC-62 melanoma

| Structure (SMILES) | TGI (ACHN renal) | TGI (EKVX NSCLC) | TGI (HCC-2998 colon) | TGI (HT29 colon) | TGI (IGROV1 ovarian) | TGI (K-562 leukemia) | TGI (LOX IMVI melanoma) | TGI (M14 melanoma) | TGI (MDA-MB-435) | TGI (NCI-H23 lung) | TGI (OVCAR-3 ovarian) | TGI (OVCAR-8 ovarian) | TGI (PC-3 prostate) | TGI (RPMI-8226 leukemia) | TGI (RXF 393 renal) | TGI (SK-MEL-5 melanoma) | TGI (SNB-75 CNS) | TGI (U251 CNS) | TGI (UACC-257 melanoma) | TGI (UACC-62 melanoma) |
| --- | --- | --- | --- | --- | --- | --- | --- | --- | --- | --- | --- | --- | --- | --- | --- | --- | --- | --- | --- | --- |
| CCOC(=O)C(Cc1cn(S(=O)(=O)c2ccc(C)cc2)cn1)P(=O)(OCC)OCC (stereo not given) | > 100 µM | > 100 µM | > 100 µM | > 100 µM | > 100 µM | > 100 µM | > 100 µM | > 100 µM | > 100 µM | > 100 µM | > 100 µM | > 100 µM | > 100 µM | > 100 µM | > 100 µM | > 100 µM | > 100 µM | > 100 µM | > 100 µM | > 100 µM |
| COc1ccc(C2C(Cl)C(=O)N2NC(=O)c2ccc(N)cc2)cc1OC (stereo not given) | 26.9 µM | 35.2 µM | 19.9 µM | 6.28 µM | 3.27 µM | 16.5 µM | 3.55 µM | 22.6 µM | 19.1 µM | 18.8 µM | 13.1 µM | 16.4 µM | 25.7 µM | 9.04 µM | 30.4 µM | 26.3 µM | 33.3 µM | 7.28 µM | 29.1 µM | 16 µM |
| COc1nc2c(c(=O)n1C)NC(C(O)C(O)CO)C=N2 (stereo not given) | > 10 µM | > 10 µM | > 10 µM | > 10 µM | > 10 µM | > 10 µM | > 10 µM | > 10 µM | > 10 µM | > 10 µM | > 10 µM | > 10 µM | > 10 µM | > 10 µM | > 10 µM | > 10 µM | > 10 µM | > 10 µM | > 10 µM | > 10 µM |

Reference: PubChem BioAssay (NCI)
